The text below walks through data of US20250304585A1, “SULFAMATE BASED COVALENT LIGAND-DIRECTED RELEASE (COLDR) COMPOUNDS” (priority 2022, published 2025).

Several values for one entry are separate records, joined by “and”; a condition that tells them apart may be missing. Equal entries are not always repeated. Where two headings read alike, the source gives them in different places.

The nature of data set [1]: GSH reactivity (consumption) assay. In kind it is physicochemical. Conditions: for GSH reactivity relative to chloroacetamide (1a): model compounds; for covalent bond formation with GSH: assay conditions or up to 37° C. for 24 h.
For another data set, the target named is BTK kinase domain (Homo sapiens (Human), UniProt Q06187). Kind of data set: In-vitro labeling of recombinant BTK, intact protein LC/MS. In kind it is binding. Conditions: 2 μM BTK, 2 μM compound.
Chain of BTK kinase domain (Q06187 402-655): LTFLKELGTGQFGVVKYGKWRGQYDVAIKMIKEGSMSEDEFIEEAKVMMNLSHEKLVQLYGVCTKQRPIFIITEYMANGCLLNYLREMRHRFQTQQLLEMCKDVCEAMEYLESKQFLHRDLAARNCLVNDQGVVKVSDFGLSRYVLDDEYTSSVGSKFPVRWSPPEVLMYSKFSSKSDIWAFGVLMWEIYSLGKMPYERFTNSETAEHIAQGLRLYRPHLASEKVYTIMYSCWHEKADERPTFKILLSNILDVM
Data set [2] has as its target T1, BTK (Homo sapiens (Human), UniProt Q06187). Kind of data set: In vitro kinase activity assay. Type of data set: biochemical.
The target in data set [3] is BTK (Mus musculus (Mouse), UniProt P35991). As to the kind of experiment: BTK engagement in treated mice spleens. Type of data set: in vivo. The method, then:
Lysates were diluted to 2 mg/ml, […] per sample, and incubated for 1 h in room temperature with […] probe 4 to label BTK. Lysates were then clicked to TAMRA-azide and imaged using ChemiDoc MP (546 nm) as described in the In-gel fluorescence protocol.

The target in data set [4] is T1, BTK. Kind of data set: BTK activity (autophosphorylation) in Mino cells. In kind it is cell-based. Conditions: anti-IgM activation, read-out: IC50 of BTK autophosphorylation inhibition.
Text: The cell pellets were subjected to immunoblotting and performed Western blots for p-BTK, BTK and β-actin.
Cell pellets were washed with ice-cold PBS and lysed using RIPA-buffer (Sigma, R0278). […] EZ-ECL Kit (Biological Industries, 20-500-1000) was used to detect HRP-activity.
The test system of data set [5] is TCL1 adoptive transfer mouse model for CLL. As to the kind of experiment: TCL1 adoptive transfer mouse model for CLL. Conditions: after two weeks of treatment. In kind it is in vivo.
The test system of data set [6] is Mino cells. Kind of data set: Competitive pull-down proteomics. Conditions: 1 μM, fold-enrichment>4 and p-value<0.05. In kind it is cell-based.
In a further data set the target is EGFR (Homo sapiens (Human), UniProt P00533). As to the kind of experiment: In vitro kinase activity assay with EGFR. In kind it is biochemical. Conditions: for EGFR/BTK: ratio of off-target/BTK IC50.
Chain of EGFR (P00533 25-1210): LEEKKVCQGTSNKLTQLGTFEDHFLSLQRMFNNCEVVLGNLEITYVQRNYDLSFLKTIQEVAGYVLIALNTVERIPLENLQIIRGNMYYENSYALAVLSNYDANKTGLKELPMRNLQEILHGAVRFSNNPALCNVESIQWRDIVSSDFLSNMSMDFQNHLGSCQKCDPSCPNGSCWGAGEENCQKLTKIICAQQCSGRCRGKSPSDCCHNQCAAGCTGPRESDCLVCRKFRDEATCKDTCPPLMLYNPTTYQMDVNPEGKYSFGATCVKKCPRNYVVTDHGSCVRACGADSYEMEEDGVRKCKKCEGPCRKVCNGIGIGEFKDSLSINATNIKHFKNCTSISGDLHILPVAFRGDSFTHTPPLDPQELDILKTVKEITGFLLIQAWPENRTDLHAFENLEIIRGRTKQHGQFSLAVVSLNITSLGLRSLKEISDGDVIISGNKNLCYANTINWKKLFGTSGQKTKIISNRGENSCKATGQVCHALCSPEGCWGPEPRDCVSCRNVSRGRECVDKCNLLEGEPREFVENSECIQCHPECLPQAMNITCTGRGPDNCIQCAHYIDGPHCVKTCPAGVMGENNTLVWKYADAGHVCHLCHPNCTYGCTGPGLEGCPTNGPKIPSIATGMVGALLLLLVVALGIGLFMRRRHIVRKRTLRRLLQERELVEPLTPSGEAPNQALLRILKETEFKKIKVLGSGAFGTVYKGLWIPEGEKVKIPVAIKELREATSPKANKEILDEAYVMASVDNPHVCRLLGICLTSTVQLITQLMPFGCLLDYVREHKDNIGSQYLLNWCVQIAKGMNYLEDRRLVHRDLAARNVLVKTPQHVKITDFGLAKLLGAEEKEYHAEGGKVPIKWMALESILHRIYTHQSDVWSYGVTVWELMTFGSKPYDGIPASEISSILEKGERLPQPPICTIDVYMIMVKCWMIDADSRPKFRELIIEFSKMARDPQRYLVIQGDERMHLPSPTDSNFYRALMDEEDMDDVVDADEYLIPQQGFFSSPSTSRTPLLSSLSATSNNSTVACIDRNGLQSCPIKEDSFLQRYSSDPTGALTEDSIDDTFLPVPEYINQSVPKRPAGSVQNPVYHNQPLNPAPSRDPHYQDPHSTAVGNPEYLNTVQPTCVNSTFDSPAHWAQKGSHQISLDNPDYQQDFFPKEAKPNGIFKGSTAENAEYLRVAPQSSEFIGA
Data set [7] can be described thus: Metabolic stability with human liver microsomes. Conditions: five-minute incubation. A general note: Liver microsomes are vesicles of endoplasmic reticulum, rich in cytochrome P450 enzymes.
The target in a further data set is BTK C481S mutant (Homo sapiens (Human), UniProt Q06187, C481S). Kind of data set: In vitro kinase activity assay with BTK C481S mutant. In kind it is biochemical. Conditions: for C481S/BTK: ratio of off-target/BTK IC50.
Chain of BTK C481S mutant (Q06187 whole entry C481S, looked up): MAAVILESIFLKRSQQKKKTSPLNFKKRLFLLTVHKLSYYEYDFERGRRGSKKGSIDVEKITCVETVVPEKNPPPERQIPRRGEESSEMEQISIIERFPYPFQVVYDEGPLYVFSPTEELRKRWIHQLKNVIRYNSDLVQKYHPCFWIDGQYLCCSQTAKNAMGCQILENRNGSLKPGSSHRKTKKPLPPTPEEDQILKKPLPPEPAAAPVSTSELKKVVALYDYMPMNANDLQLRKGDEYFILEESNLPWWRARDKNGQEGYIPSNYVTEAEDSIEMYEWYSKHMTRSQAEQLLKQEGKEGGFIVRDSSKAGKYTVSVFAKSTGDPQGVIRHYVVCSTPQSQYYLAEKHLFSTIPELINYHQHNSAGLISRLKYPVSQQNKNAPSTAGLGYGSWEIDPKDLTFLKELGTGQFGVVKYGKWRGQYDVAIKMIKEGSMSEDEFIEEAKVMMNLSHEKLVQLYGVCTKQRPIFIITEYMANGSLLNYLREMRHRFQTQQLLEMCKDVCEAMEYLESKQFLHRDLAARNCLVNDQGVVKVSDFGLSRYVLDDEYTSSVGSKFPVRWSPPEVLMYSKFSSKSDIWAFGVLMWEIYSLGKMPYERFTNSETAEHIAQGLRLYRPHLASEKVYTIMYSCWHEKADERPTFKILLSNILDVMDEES
Data set [8] deals with Mino cells. Kind of data set: Proteomic reactivity of model alkyne probes. Conditions: compared with 2b. Type of data set: cell-based.
The mark [9] stands for this setting: 0.5 nM BTK, 5 μM ATP, read-out: BTK (IC50 μM).
[10] abbreviates: BTK C481S mutant, read-out: C481S (IC50 μM).

What is called IC50 is the point on the concentration scale where inhibition reaches its midpoint.

T1 sequence (Q06187 whole entry, looked up): as the sequence (Q06187 whole entry C481S, looked up) above, with S481C counted along it
Chain of BTK (Mus musculus (Mouse), UniProt P35991) (P35991 whole entry): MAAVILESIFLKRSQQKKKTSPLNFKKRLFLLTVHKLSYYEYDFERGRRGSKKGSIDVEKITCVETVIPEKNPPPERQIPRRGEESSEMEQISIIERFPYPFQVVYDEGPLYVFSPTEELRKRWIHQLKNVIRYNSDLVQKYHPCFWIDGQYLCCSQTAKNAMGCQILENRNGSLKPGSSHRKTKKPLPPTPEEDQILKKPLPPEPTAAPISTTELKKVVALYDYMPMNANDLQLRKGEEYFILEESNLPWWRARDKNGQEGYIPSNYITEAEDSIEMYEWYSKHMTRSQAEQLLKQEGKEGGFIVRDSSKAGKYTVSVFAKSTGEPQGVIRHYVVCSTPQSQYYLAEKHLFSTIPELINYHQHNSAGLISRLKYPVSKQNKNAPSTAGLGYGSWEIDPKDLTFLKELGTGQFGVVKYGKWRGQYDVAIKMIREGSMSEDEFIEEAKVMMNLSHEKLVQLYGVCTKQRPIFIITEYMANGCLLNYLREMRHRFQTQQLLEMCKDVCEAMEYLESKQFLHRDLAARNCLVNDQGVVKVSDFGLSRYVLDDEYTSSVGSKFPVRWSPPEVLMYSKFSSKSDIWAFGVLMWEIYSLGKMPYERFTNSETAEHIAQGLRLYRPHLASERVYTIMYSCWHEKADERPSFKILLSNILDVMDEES

As for `C#CCOS(=O)(=O)N1CCC[C@@H](n2nc(-c3ccc(Oc4ccccc4)cc3)c3c(N)ncnc32)C1` [Compound 3j, prop-2-yn-1-yl (R)-3-(4-amino-3-(4-phenoxyphenyl)-1H-pyrazolo[3,4-d]pyrimidin-1-yl)piperidine-1-sulfonate], the “reaction with GSH” value in data set [1] (same conditions as Ibrutinib) is reported as “did not undergo any reaction with GSH”.

In the case of `Nc1ncnc2c1c(-c1ccc(Oc3ccccc3)cc1)nn2[C@@H]1CCCN(C(=O)CS(=O)(=O)c2ccccc2)C1` [Compound 3g, (R)-1-(3-(4-amino-3-(4-phenoxyphenyl)-1H-pyrazolo[3,4-d]pyrimidin-1-yl)piperidin-1-yl)-2-(phenylsulfonyl)ethan-1-one], the “covalent labeling of BTK (LC/MS)” value at BTK kinase domain was “failed to react covalently with BTK”.

For `CNS(=O)(=O)OCC(=O)NCc1ccccc1` [Compound 1d, 2-(benzylamino)-2-oxoethyl methylsulfamate], in data set [1], the “GSH reactivity relative to chloroacetamide (1a)” value is given as “an order of magnitude less reactivity”.

As for `CNS(=O)(=O)OCC(=O)N1CCC[C@@H](n2nc(-c3ccc(Oc4ccccc4)cc3)c3c(N)ncnc32)C1` [Compound 3c, (R)-2-(3-(4-amino-3-(4-phenoxyphenyl)-1H-pyrazolo[3,4-d]pyrimidin-1-yl)piperidin-1-yl)-2-oxoethyl methylsulfamate], the IC50 on BTK [2] (setting [9]) was 0.00864 µM and 0.0086 µM; at BTK [2] (read-out: IC50 against BTK) it was about 0.01 µM; at BTK [4] it was 3.6 nM; against EGFR it was 0.241 µM; against BTK C481S mutant, 0.74 µM. Moreover, on BTK [3], the “BTK engagement in vivo (ibrutinib-alkyne probe labeling of spleen lysate)” value is recorded as “do not show probe labeling”. Besides, the spleen size result in data set [5] is recorded as “visually smaller”. Besides, the “number of off-targets (competitive pull-down)” value in the data set with Mino cells [6] turned out to be 6. Further, the EGFR/BTK at EGFR worked out at 27.9. In addition, in data set [7], the “remained intact after incubation with human liver microsomes” value was “over 30%”. For the same compound, the “fold potency lost against the C481S mutant” value on BTK C481S mutant was 30-85 fold. Further, at BTK C481S mutant, the C481S/BTK is on record as 85.6.

Turning to `CS(=O)(=O)CC(=O)N1CCC[C@@H](n2nc(-c3ccc(Oc4ccccc4)cc3)c3c(N)ncnc32)C1` [Compound 3f, (R)-1-(3-(4-amino-3-(4-phenoxyphenyl)-1H-pyrazolo[3,4-d]pyrimidin-1-yl)piperidin-1-yl)-2-(methylsulfonyl)ethan-1-one], the “covalent labeling of BTK (LC/MS)” value at BTK kinase domain is recorded as “failed to react covalently with BTK”.

As for `O=C(COS(=O)(=O)NCc1ccccc1)NCc1ccccc1` [Compound 1e, 2-(benzylamino)-2-oxoethyl benzylsulfamate], the “GSH reactivity relative to chloroacetamide (1a)” value in data set [1] is listed as “an order of magnitude less reactivity”.

Turning to `C#Cc1ccc(NC(=O)CCl)cc1` [Compound 2c, 2-chloro-N-(4-ethynylphenyl)acetamide], in the data set with Mino cells [8], the “proteomic reactivity (proteins enriched)” value is reported as “enriching more proteins”.

On to `CS(=O)(=O)OCC(=O)N1CCC[C@@H](n2nc(-c3ccc(Oc4ccccc4)cc3)c3c(N)ncnc32)C1` [Compound 3b, (R)-2-(3-(4-amino-3-(4-phenoxyphenyl)-1H-pyrazolo[3,4-d]pyrimidin-1-yl)piperidin-1-yl)-2-oxoethyl methanesulfonate], for which the IC50 on BTK [2] (setting [9]) was 0.0464 µM and 0.046 µM; on BTK [4], 6 nM.

For `O=C(CS(=O)(=O)c1ccccc1)NCc1ccccc1` [Compound 1j, N-benzyl-2-(phenylsulfonyl)acetamide], the “covalent bond formation with GSH” value in data set [1] is “did not form a covalent bond with GSH”.

Take `Nc1ncnc2c1c(-c1ccc(Oc3ccccc3)cc1)nn2[C@@H]1CCCN(C(=O)COS(=O)(=O)Nc2ccccc2)C1` [Compound 3e, (R)-2-(3-(4-amino-3-(4-phenoxyphenyl)-1H-pyrazolo[3,4-d]pyrimidin-1-yl)piperidin-1-yl)-2-oxoethyl phenylsulfamate]: the “fold weaker IC50 than Ibrutinib” value at BTK [2] is 10 fold. Further, the IC50 at BTK [2] (setting [9]) was 0.0949 µM and 0.095 µM; on BTK [2] (read-out: IC50 against BTK), 0.1 µM; at EGFR, 1.96 µM; at BTK C481S mutant (setting [10]) it was 0.275 µM. Also, the EGFR/BTK at EGFR was determined as 20.6. In addition, the C481S/BTK at BTK C481S mutant is recorded as 2.9.

For `Nc1ncnc2c1c(-c1ccc(Oc3ccccc3)cc1)nn2[C@@H]1CCCN(C(=O)COS(=O)(=O)NCc2ccccc2)C1` [Compound 3d, (R)-2-(3-(4-amino-3-(4-phenoxyphenyl)-1H-pyrazolo[3,4-d]pyrimidin-1-yl)piperidin-1-yl)-2-oxoethyl benzylsulfamate], the IC50 is 0.0242 µM and 0.024 µM at BTK [2] (setting [9]); about 0.01 µM on BTK [2] (read-out: IC50 against BTK); 0.533 µM against EGFR; 1.28 µM at BTK C481S mutant (setting [10]). For the same compound, the “number of off-targets (competitive pull-down)” value in the data set on Mino cells [6] amounted to 20. Moreover, at EGFR, the EGFR/BTK was found to be 22.0. The “fold potency lost against the C481S mutant” value at BTK C481S mutant is given as 30-85 fold. On BTK C481S mutant, the C481S/BTK came to 52.8.

As for `CS(=O)(=O)CC(=O)NCc1ccccc1` [Compound 1i, N-benzyl-2-(methylsulfonyl)acetamide], in data set [1], the “covalent bond formation with GSH” value was “did not form a covalent bond with GSH”.

`C#Cc1ccc(NC(=O)COS(=O)(=O)NCc2ccccc2)cc1` [Compound 2a, 2-((4-ethynylphenyl)amino)-2-oxoethyl benzylsulfamate]: the “proteomic reactivity (proteins enriched)” value with Mino cells [8] was “enriching more proteins”.
